Reference: patent US4075192A, “Nonapeptides and methods for their production” (Parke, Davis & Company, priority 1977, dated 1978)
Non-standard residues stand in square brackets, D forms with d. Residues, ends and D or L forms follow the SMILES beside them. No end group written: not given here. *: point of attachment. pGlu = O=C1CC[C@@H](C(=O)O)N1; Orn = NCCC[C@H](N)C(=O)O; Bn = c1ccc(C*)cc1

Tested on: LRF (luteinizing hormone releasing factor) induced luteinizing hormone (LH) release
Test: In vitro LRF antagonist test in rat anterior pituitary cell cultures
Type: cell-based
Excerpt: Nonapeptides of this invention were screened for LRF antagonist activity in vitro using rat anterior pituitary cell cultures as described by Vale et al. [Endocrinology, 91, 562 (1972)]. The inhibition of LRF (luteinizing hormone releasing factor) induced luteinizing hormone (LH) release into the culture medium is the endpoint in this in vitro bioassay.

Molecule	LH Value (compound Molar Conc. 1×10^-6, LH released into culture medium) [ng/mL]	% LH Release Inhibition (compound Molar Conc. 1×10^-6, inhibition of LRF induced LH release) [%]	LH Value (LRF alone, Molar Conc. 2.5×10^-10) [ng/mL]
CCNC(=O)[C@@H]1CCCN1C(=O)[C@H](CCCN)NC(=O)[C@H](CC(C)C)NC(=O)[C@@H](C)NC(=O)[C@H](COCc1ccccc1)NC(=O)[C@H](Cc1ccc(OCc2ccccc2)cc1)NC(=O)[C@H](Cc1c[nH]c2ccccc12)NC(=O)[C@@H](Cc1ccccc1)NC(=O)[C@@H]1CCC(=O)N1 [L-pyroglutamyl-D-phenylalanyl-L-tryptophyl-O-benzyl-L-tyrosyl-O-benzyl- L-seryl-D-alanyl-L-leucyl-L-ornithyl-L-proline N-ethylamide] ([pGlu][dF]WY(Bn)S(Bn)[dA]L[Orn]P-NHEt)	19.15	61	–
LRF Control: luteinizing hormone releasing factor, also referred to as luteinizing hormone releasing hormone, LH-RH; stimulates secretion of luteinizing hormone (QHWSYGLRPG; ends and bridges not checked; UniProt P01148 24-33, looked up) [reference compound]	–	–	39.98
